Values after ≈ are worked out from the molar mass of the structure shown. Active and inactive are the calls of the source. The rule behind the calls is not given here.
Assays:
Format in all cases: functional
[1] = test system: Staphylococcus epidermidis; assay: Antibacterial activity against methicillin resistant Staphylococcus epidermidis 19-1
Staphylococcus aureus [2] = assay: Antibacterial activity against methicillin sensitive Staphylococcus aureus 20-12
Enterococcus faecium [3] = assay: Antibacterial activity against Vanomycin-resistant Enterococcus faecium ATCC 700221
Staphylococcus aureus [4] = assay: Antibacterial activity against methicillin sensitive Staphylococcus aureus ATCC 33591
Enterococcus faecalis [5] = assay: Antibacterial activity against Vanomycin-resistant Enterococcus faecalis ATCC 51575
Staphylococcus aureus [6] = assay: Antibacterial activity against methicillin sensitive Staphylococcus aureus 15
Staphylococcus aureus [7] = assay: Antibacterial activity against vancomycin intermediate and methicillin resistant Staphylococcus aureus ATCC 700699
Enterococcus faecalis [8] = assay: Antibacterial activity against Vanomycin-resistant Enterococcus faecalis ATCC 51299
[9] = test system: Staphylococcus epidermidis; assay: Antibacterial activity against methicillin sensitive Staphylococcus epidermidis 17-13
Staphylococcus aureus [10] = assay: Antibacterial activity against methicillin sensitive Staphylococcus aureus ATCC 29213
Staphylococcus aureus [11] = assay: Antibacterial activity against methicillin resistant Staphylococcus aureus 20-11
Enterococcus faecium [12] = assay: Antibacterial activity against Vanomycin-resistant Enterococcus faecium ATCC 51559
Staphylococcus aureus [13] = assay: Antibacterial activity against methicillin resistant Staphylococcus aureus ATCC 43300
Staphylococcus aureus [14] = assay: Antibacterial activity against methicillin resistant Staphylococcus aureus 18-2
Staphylococcus aureus [15] = assay: Antibacterial activity against vancomycin intermediate and methicillin resistant Staphylococcus aureus ATCC 700698
[16] = test system: Staphylococcus epidermidis; assay: Antibacterial activity against methicillin resistant Staphylococcus epidermidis 19-2
Enterococcus faecium [17] = assay: Antibacterial activity against Vanomycin-resistant Enterococcus faecium 15-6
[18] = test system: Staphylococcus epidermidis; assay: Antibacterial activity against methicillin sensitive Staphylococcus epidermidis ATCC 12228

Structure (SMILES) | MIC [1] | MIC (Staphylococcus aureus [2]) | MIC (Enterococcus faecium [3]) | MIC (Staphylococcus aureus [4]) | MIC (Enterococcus faecalis [5]) | MIC (Staphylococcus aureus [6]) | MIC (Staphylococcus aureus [7]) | MIC (Enterococcus faecalis [8]) | MIC [9] | MIC (Staphylococcus aureus [10]) | MIC (Staphylococcus aureus [11]) | MIC (Enterococcus faecium [12]) | MIC (Staphylococcus aureus [13]) | MIC (Staphylococcus aureus [14]) | MIC (Staphylococcus aureus [15]) | MIC [16] | MIC (Enterococcus faecium [17]) | MIC [18]
O=C(Nc1ccc(Cl)c(C(F)(F)F)c1)Nc1cc(Cl)ccc1F | 2.72 µM (≈ 0.999 µg/mL) | 2.72 µM (≈ 0.999 µg/mL) | 2.72 µM (≈ 0.999 µg/mL) | 2.72 µM (≈ 0.999 µg/mL) | 5.45 µM (≈ 2 µg/mL) | 1.36 µM (≈ 0.499 µg/mL) | 1.36 µM (≈ 0.499 µg/mL) | 5.45 µM (≈ 2 µg/mL) | 2.72 µM (≈ 0.999 µg/mL) | 2.72 µM (≈ 0.999 µg/mL) | 2.72 µM (≈ 0.999 µg/mL) | 2.72 µM (≈ 0.999 µg/mL) | 2.72 µM (≈ 0.999 µg/mL) | 1.36 µM (≈ 0.499 µg/mL) | 1.36 µM (≈ 0.499 µg/mL) | 2.72 µM (≈ 0.999 µg/mL) | 2.72 µM (≈ 0.999 µg/mL) | 2.72 µM (≈ 0.999 µg/mL)
O=C(Nc1ccc(Cl)c(C(F)(F)F)c1)Nc1cc(F)c(F)cc1Cl | 1.3 µM (≈ 0.501 µg/mL) | 1.3 µM (≈ 0.501 µg/mL) | 5.19 µM (≈ 2 µg/mL) | 0.65 µM (≈ 0.25 µg/mL) | 10.4 µM (≈ 4 µg/mL) | 1.3 µM (≈ 0.501 µg/mL) | 0.65 µM (≈ 0.25 µg/mL) | 10.4 µM (≈ 4 µg/mL) | 0.65 µM (≈ 0.25 µg/mL) | 1.3 µM (≈ 0.501 µg/mL) | 1.3 µM (≈ 0.501 µg/mL) | 5.19 µM (≈ 2 µg/mL) | 1.3 µM (≈ 0.501 µg/mL) | 1.3 µM (≈ 0.501 µg/mL) | 1.3 µM (≈ 0.501 µg/mL) | 0.65 µM (≈ 0.25 µg/mL) | 2.6 µM (≈ 1 µg/mL) | 1.3 µM (≈ 0.501 µg/mL)
CN(C(=O)Nc1cccc(Cl)c1F)c1ccc(Cl)c(C(F)(F)F)c1 | inactive | inactive | – | inactive | – | inactive | inactive | – | inactive | inactive | inactive | – | inactive | inactive | inactive | inactive | – | inactive
COc1ccc(NC(=O)Nc2ccc(Cl)c(C(F)(F)F)c2)cc1 | inactive | – | – | – | – | inactive | inactive | – | inactive | inactive | inactive | – | inactive | – | inactive | inactive | – | inactive
CN(C(=O)Nc1ccc(Cl)c(C(F)(F)F)c1)c1cccc(Cl)c1F | inactive | inactive | – | inactive | – | inactive | inactive | – | inactive | inactive | inactive | – | inactive | inactive | inactive | inactive | – | inactive
CNC(=O)c1cc(Oc2ccc(NC(=O)Nc3cc(C(F)(F)F)ccc3Cl)cc2)ccn1 | inactive | – | – | – | – | inactive | inactive | – | inactive | inactive | inactive | – | inactive | – | inactive | inactive | – | inactive
O=C(Nc1ccc(Cl)c(C(F)(F)F)c1)Nc1cc(Cl)c(F)cc1F | 2.6 µM (≈ 1 µg/mL) | 2.6 µM (≈ 1 µg/mL) | 5.19 µM (≈ 2 µg/mL) | 1.3 µM (≈ 0.501 µg/mL) | 10.4 µM (≈ 4 µg/mL) | 1.3 µM (≈ 0.501 µg/mL) | 2.6 µM (≈ 1 µg/mL) | 20.8 µM (≈ 8 µg/mL) | 2.6 µM (≈ 1 µg/mL) | 2.6 µM (≈ 1 µg/mL) | 2.6 µM (≈ 1 µg/mL) | 5.19 µM (≈ 2 µg/mL) | 2.6 µM (≈ 1 µg/mL) | 2.6 µM (≈ 1 µg/mL) | 2.6 µM (≈ 1 µg/mL) | 1.3 µM (≈ 0.501 µg/mL) | 5.19 µM (≈ 2 µg/mL) | 2.6 µM (≈ 1 µg/mL)
O=C(Nc1ccc(Cl)c(F)c1)Nc1ccc(Cl)c(C(F)(F)F)c1 | 1.36 µM (≈ 0.499 µg/mL) | 2.72 µM (≈ 0.999 µg/mL) | 5.45 µM (≈ 2 µg/mL) | 1.36 µM (≈ 0.499 µg/mL) | 10.9 µM (≈ 4 µg/mL) | 2.72 µM (≈ 0.999 µg/mL) | 1.36 µM (≈ 0.499 µg/mL) | 21.8 µM (≈ 8 µg/mL) | 2.72 µM (≈ 0.999 µg/mL) | 2.72 µM (≈ 0.999 µg/mL) | 2.72 µM (≈ 0.999 µg/mL) | 10.9 µM (≈ 4 µg/mL) | 2.72 µM (≈ 0.999 µg/mL) | 2.72 µM (≈ 0.999 µg/mL) | 2.72 µM (≈ 0.999 µg/mL) | 1.36 µM (≈ 0.499 µg/mL) | 10.9 µM (≈ 4 µg/mL) | 2.72 µM (≈ 0.999 µg/mL)
CNC(=O)c1cc(Oc2ccc(NC(=O)Nc3cccc(C(F)(F)F)c3)cc2)ccn1 | 149 µM (≈ 64 µg/mL) | – | – | – | – | 149 µM (≈ 64 µg/mL) | inactive | – | inactive | inactive | inactive | – | inactive | – | inactive | inactive | – | 149 µM (≈ 64 µg/mL)
C[C@H]1COc2c(N3CCN(C)CC3)c(F)cc3c(=O)c(C(=O)O)cn1c23 [LEVOFLOXACIN] | 11.1 µM (≈ 4 µg/mL) | 1.38 µM (≈ 0.499 µg/mL) | 177 µM (≈ 64 µg/mL) | 0.69 µM (≈ 0.249 µg/mL) | 2.77 µM (≈ 1 µg/mL) | 0.69 µM (≈ 0.249 µg/mL) | 22.1 µM (≈ 8 µg/mL) | 1.38 µM (≈ 0.499 µg/mL) | 0.69 µM (≈ 0.249 µg/mL) | 0.69 µM (≈ 0.249 µg/mL) | 1.38 µM (≈ 0.499 µg/mL) | 88.5 µM (≈ 32 µg/mL) | 1.38 µM (≈ 0.499 µg/mL) | 177 µM (≈ 64 µg/mL) | 22.1 µM (≈ 8 µg/mL) | 11.1 µM (≈ 4 µg/mL) | 177 µM (≈ 64 µg/mL) | 0.69 µM (≈ 0.249 µg/mL)
O=C(Nc1ccc(OC(F)F)cc1)Nc1ccc(Cl)c(C(F)(F)F)c1 | 5.25 µM (≈ 2 µg/mL) | 10.5 µM (≈ 4 µg/mL) | 21 µM (≈ 8 µg/mL) | 10.5 µM (≈ 4 µg/mL) | inactive | 0.66 µM (≈ 0.251 µg/mL) | 0.66 µM (≈ 0.251 µg/mL) | inactive | 2.63 µM (≈ 1 µg/mL) | 10.5 µM (≈ 4 µg/mL) | 0.66 µM (≈ 0.251 µg/mL) | 21 µM (≈ 8 µg/mL) | 10.5 µM (≈ 4 µg/mL) | 5.25 µM (≈ 2 µg/mL) | 1.31 µM (≈ 0.499 µg/mL) | 10.5 µM (≈ 4 µg/mL) | 21 µM (≈ 8 µg/mL) | 10.5 µM (≈ 4 µg/mL)
CNC(=O)c1cc(Oc2ccc(NC(=O)Nc3cc(C(F)(F)F)ccc3OC)cc2)ccn1 | inactive | – | – | – | – | inactive | inactive | – | inactive | inactive | inactive | – | inactive | – | inactive | inactive | – | inactive
CNC(=O)c1cc(Oc2ccc(NC(=O)N3CCN(c4ccc(Cl)c(C(F)(F)F)c4)C3=O)cc2)ccn1 | inactive | inactive | – | inactive | – | inactive | inactive | – | inactive | inactive | inactive | – | inactive | inactive | inactive | inactive | – | inactive
O=C(Nc1ccc2c(c1)OCO2)Nc1ccc(Cl)c(C(F)(F)F)c1 | 22.3 µM (≈ 8 µg/mL) | – | – | – | – | 22.3 µM (≈ 8 µg/mL) | 22.3 µM (≈ 8 µg/mL) | – | 22.3 µM (≈ 8 µg/mL) | 44.6 µM (≈ 16 µg/mL) | 44.6 µM (≈ 16 µg/mL) | – | 357 µM (≈ 128 µg/mL) | – | 44.6 µM (≈ 16 µg/mL) | 22.3 µM (≈ 8 µg/mL) | – | 22.3 µM (≈ 8 µg/mL)
O=C1N(c2ccc(O)cc2)CCN1c1ccc(Cl)c(C(F)(F)F)c1 | inactive | – | – | – | – | inactive | inactive | – | inactive | inactive | inactive | – | inactive | – | inactive | inactive | – | inactive
CNC(=O)c1cc(Oc2ccc(N3CCN(c4ccc(Cl)c(C(F)(F)F)c4)C3=O)cc2)ccn1 | inactive | – | – | – | – | inactive | inactive | – | inactive | inactive | inactive | – | inactive | – | inactive | inactive | – | inactive

From ChEMBL document CHEMBL5223117, “Synthesis and biological evaluation of novel N, N'-diarylurea derivatives as potent antibacterial agents against MRSA” (Bioorg Med Chem Lett, 2022)
